This series deals with p38β. The experiment in a line: Western blot of spinal p38β protein expression after IT antisense. It is filed as in vivo, rat. Conditions: for p38β protein expression, % Expression Compared to Missense: spinal cord at day six, MS=100%, mean ±SEM n=6; for spinal p38β protein expression compared to missense (MS)-treated animals (in words): five days of IT bolus injections, p38β AS 10-20 μg (10 and 20 μg: P<0.05), p38α AS 10-30 μg. The source says: It has previously been shown that inhibition of spinal p38 MAP kinase prevents both inflammation-evoked hyperalgesia and nerve injury-induced allodynia. Ji et al., Neuron 36: 57-68, 2002; Schafers et al., J Neurosci 23: 2517-2521, 2003; Svensson et al., Neuroreport 14: 1153-1157, 2003a.; Svensson et al., J Neurochem 86: 1534-1544, 2003b. It still remains to be determined whether only one or both of the p38 isoforms, that are present in the spinal cord, are involved in modulation of spinal nociceptive processing. Since there is no specific p38 isoform inhibitors available, rats were treated intrathecally with isoform specific antisense oligonucleotides (AS) in order to knock down p38α and p38β respectively. […] There were no differences between the AS-, MS- or vehicle-treated groups in terms of weight gain or motor function. The specificity of the effects of these two antisense oligonucleotides was also examined. Western blot membranes were stripped and re-incubated the with the other p38 isoform antibody. […] In Table 1, antisense was given IT once daily for 5 days and protein expression assayed in spinal chord at day six compared to protein level detected in missense treated animals (MS=100%). Each group represents mean ±SEM, n=6 per group. (*) represents P<0.05 as compared to the missense group.
Antisense oligonucleotides. Three oligonucleotides (a kind gift from ISIS Pharmaceuticals Inc.) with lengths of 20 nucleotides were employed in the study: ISIS 101757 (p38α AS) […], beginning at position 1081 in the rat p38α mRNA; ISIS 107211 (p38βAS) […], beginning at position 439 in the rat p38β mRNA; and ISIS141923 (an universe MS control) […]. These oligonucleotides were synthesized as 2′-methoxyethyl (MOE) phosphorothioate chimeric oligonucleotides in which the first and last five bases contained MOE modifications with a uniform phosphorothioate backbone. Butler et al., Diabetes 51: 1028-1034, 2002. The oligonucleotides were dissolved in artificial cerebrospinal fluid (ACSF) immediately prior to intrathecal administration. The ACSF contained (mM) 151.1 Na+, 2.6 K+, 0.9 Mg2+, 1.3 Ca 2+, 122.7 Cl−, 21.0 HCO3, 2.5 HPO4 and was bubbled with 95% O2/5% CO2 before use to adjust the final pH to 7.2. AS and MS (10-30 μg) was administrated in 10 μl ACSF followed by 10 μl saline daily for five days and behavioral experiments and spinal tissue collection performed on day six.
Western blot. Prior to sacrifice, rats were deeply anesthetized and after decapitation the spinal cords were ejected from the vertebral column by a saline-filled syringe. The lumbar part of the spinal cord was immediately homogenized in extraction buffer (50 mM Tris buffer, pH 8.0, containing 0.5% Triton X-100, 150 mM NaCl, 1 mM EDTA, phosphatase and protease inhibitors) by sonication. The tissue extracts were subjected to denaturing NuPAGE 4-12% Bis-Tris gel electrophoresis and then transferred to nitrocellulose membranes (Micronic Separation Inc. Westborough, Mass.). After blocking nonspecific binding sites with 5% low-fat milk in PBS containing 0.1% Tween 20 (PBS-T) for 1 hour in room temperature, the membranes were incubated with antibodies overnight at 4° C. After washing, the antibody-protein complexes were probed with appropriate secondary antibodies labeled with horseradish peroxidase for 1 hr at room temperature and detected with chemiluminescent reagents (SuperSignal, Pierce, Rockford, Ill.). […]
Background: Immunoblotting shows a protein as a band on a membrane.

Entries after “also recorded” stand apart in the source; their conditions may differ. Marks after values point to notes of the source that are not given here.

With “p38α AS: 20-nucleotide 2′-MOE phosphorothioate chimeric antisense AGGTGCTCAGGACTCCATTT, beginning at position 1081 in the rat p38α mRNA (all phosphorothioate, sugars by position and methylation of C not given here; 2'-MOE chimeric (gapmer) antisense)”, the “spinal p38β protein expression compared to missense (MS)-treated animals (in words)” value was “neither p38α AS nor p38β AS produced a reduction of the protein expression of the other isoform”. In addition, the “p38β protein expression, % Expression Compared to Missense” value (IT antisense 30 μg once daily for 5 days) was determined as 111 ± 15%.
“p38β AS: 20-nucleotide 2′-MOE phosphorothioate chimeric antisense GTATGTCCTCCTCGCGTGGA, beginning at position 439 in the rat p38β mRNA (all phosphorothioate, sugars by position and methylation of C not given here; 2'-MOE chimeric (gapmer) antisense)”: the “spinal p38β protein expression compared to missense (MS)-treated animals (in words)” value is “significant down-regulation; also recorded: knocked down”. Moreover, the “p38β protein expression, % Expression Compared to Missense” value (IT antisense 10 μg once daily for 5 days) is 45 ± 9* %. Also, the “p38β protein expression, % Expression Compared to Missense” value (IT antisense 20 μg once daily for 5 days) is 39 ± 12* %.

These data come from US20080206253A1, “Method For Preventing or Treating Pain in a Mammal” (priority 2005, published 2008).
